Measured values from patent US10939901B2, “Customizable anchorage devices and methods of use” (TYRX, Inc., priority 2016, dated 2021).
One block for each molecule: values may come before it.

Columns and labels:
myofibroblast formation = details: Ajmal et al. (2003); cited from earlier work
[1] = Stability of rifampin and minocycline in PBS with and without tranexamic acid; format: physicochemical
Experimental: To determine the stability of active pharmaceutical ingredients, such as, for example, one or more of active pharmaceutical ingredients 26 when combined with a hemostatic agent, such as, for example, one or more of hemostatic agents 24, mixtures of rifampin and minocycline were prepared in phosphate-buffered saline (PBS) with and without tranexamic acid (TXA). The mixtures were tested both at room temperature (RT) (about 23° C.) and at 37° C.

[2] = In vitro elution of rifampin and minocycline from p22-27.5 polymers with TXA in the release media; format: physicochemical; details: PBS pH 7.4 without TXA, with TXA 0.05 mg/mL or 5 mg/mL, over 25 hours
From the text: To determine the elution of active pharmaceutical ingredients, such as, for example, one or more of active pharmaceutical ingredients 26 from a polymer, such as, for example, one of the polymers discussed herein, in vitro when the active pharmaceutical ingredients are combined with a hemostatic agent, such as, for example, one or more of hemostatic agents 24, in vitro elution of rifampin and minocycline from polymers in the p22-27.5 family containing different amounts of tranexamic acid was evaluated in a PBS buffer over 25 hours. B1=PBS pH 7.4; B2=PBS, pH 7.4+TXA (0.05 mg/mL); B3=PBS, pH 7.4+TXA (5 mg/mL).

blood clotting = assay: Time required to induce blood clotting in vitro; format: biochemical
Experimental: Tests were conducted to compare the time required to induce blood clotting in vitro when different amounts of hemostatic agent is administered in the presence of TYRX (degradable mesh coated with P22-27.5 containing rifampin and minocycline), as shown in FIG. 23.
Tests were conducted to compare the time required for different hemostatic agents to induce blood clotting in vitro versus the time required to induce blood clotting in vitro when no hemostatic agent is administered. In particular, the time required to induce blood clotting was plotted for blood alone, TYRX, Surgicel, TYRX with 1.6 mg of TXA, 1.2 mg of TXA alone and TYRX with 200 mg of TXA. In this example, TYRX refers to a Glycoprene mesh that is coated with P22-27.5 (a polymer in the P22-X family) containing Rifampin and Minocycline.

SMILES: O=S(=O)([O-])CCS.[Na+] [MESNA, sodium 2-mercaptoethane sulfonate]
- myofibroblast formation (myofibroblast formation): diminish myofibroblast formation

- percentage area of rifampin, mixtures with versus without tranexamic acid ([1]; RT (about 23° C.) and 37° C., regardless of the temperature): substantially the same
- elution rate from p22-27.5 polymer [2]: not affected by the presence of TXA
SMILES: CO[C@H]1/C=C/O[C@@]2(C)Oc3c(C)c(O)c4c(O)c(c(/C=N/N5CCN(C)CC5)c(O)c4c3C2=O)NC(=O)/C(C)=C\C=C\[C@H](C)[C@H](O)[C@@H](C)[C@@H](O)[C@@H](C)[C@H](OC(C)=O)[C@@H]1C [rifampin]

SMILES: NC[C@H]1CC[C@H](C(=O)O)CC1 [tranexamic acid]
- effect on the stability of rifampin and minocycline ([1]; RT and 37° C.): does not negatively affect the stability of rifampin and minocycline
- Clotting time (blood clotting; higher amounts of TXA (1.6 mg TXA vs 200 mg of TXA) in the presence of TYRX): increased
- time required to induce blood clotting (blood clotting; in vitro, 1.2 mg of TXA alone): about 19 minutes
